Experiments:
wheat = experiment: Test B postemergence herbicide test; format: in vivo, Triticum aestivum; parameters: key to Wheat plant response rating: 0 = no effect, 100 = complete control; conditions: postemergence, visual rating, scale 0 (no effect) to 100 (complete control)
Outline: (§1)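 Scale 0–100: zero equals no visible effect, 100 complete control, judged by eye relative to controls. Timing: 13 to 15 days in greenhouse post-treatment. Growth stage at spraying: two leaves (paddy) or one to four leaves, 2–18 cm (postemergence).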

rice [1] = experiment: Test B pre-/postemergence herbicide test; format: in vivo, Oryza sativa; conditions: 0 = no effect, 100 = complete control, preemergence
Outline: (§2)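 Visual rating, 0 (no effect) to 100 (complete control), versus untreated controls after 13–15 d in greenhouse. Pre- and postemergence applications (postemergence plants 2–18 cm, 1–4 leaves); flooded paddy arm at 2-leaf stage. Compounds in non-phytotoxic solvent plus surfactant.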

cocklebur = experiment: Test B pre-/postemergence herbicide test; format: in vivo, Xanthium strumarium; conditions: for Cocklebur plant response rating: postemergence, scale 0 (no effect) to 100 (complete control)
Outline: (§3)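 Test chemicals in a non-phytotoxic solvent mixture with surfactant were applied preemergence to seeded species and postemergence to plants 2-18 cm tall (1- to 4-leaf stage); rice and barnyardgrass were also tested in a flooded paddy at the 2-leaf stage. Visual rating versus controls after 13-15 days in greenhouse, scale 0 (no effect) to 100 (complete control).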

large crabgrass = experiment: Test B pre-/postemergence herbicide test; format: in vivo, Digitaria sanguinalis; conditions: for Crabgrass, Large plant response rating: postemergence, scale 0 (no effect) to 100 (complete control)
Outline: as §2

pigweed = experiment: Test B pre-/postemergence herbicide test; format: in vivo, Amaranthus retroflexus; conditions: for Pigweed plant response rating: postemergence, scale 0 (no effect) to 100 (complete control)
Outline: as §2

Surinam grass = experiment: Test B pre-/postemergence herbicide test; format: in vivo, Urochloa decumbens; conditions: for Surinam Grass plant response rating: postemergence, scale 0 (no effect) to 100 (complete control)
Outline: as §2

barnyardgrass [2] = experiment: Test B pre-/postemergence herbicide test; format: in vivo, Echinochloa crus-galli; conditions: for Barnyardgrass plant response rating: postemergence, scale 0 (no effect) to 100 (complete control)
Outline: as §3

giant foxtail = experiment: Test B pre-/postemergence herbicide test; format: in vivo, Setaria faberi; conditions: for Foxtail, Giant plant response rating: postemergence, scale 0 (no effect) to 100 (complete control)
Outline: as §2

wild oat = experiment: Test B postemergence herbicide test; format: in vivo, Avena fatua; conditions: postemergence, visual rating, scale 0 (no effect) to 100 (complete control)
Outline: as §1

rice [3] = experiment: Test B flooded paddy test; format: in vivo, Oryza sativa; conditions: 1000 g ai/ha, scale 0 to 100 (0 no effect, 100 complete control)
Outline: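 Read-out: visual comparison with controls, scored 0 to 100, where 100 means complete control and 0 no effect. Formulated chemicals were applied postemergence to plants 2–18 cm tall (1- to 4-leaf), or to flooded-paddy plants at the 2-leaf stage, then held 13 to 15 days under glass.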

morningglory = experiment: Test B pre-/postemergence herbicide test; format: in vivo, Ipomoea coccinea; conditions: for Morningglory plant response rating: postemergence, scale 0 (no effect) to 100 (complete control)
Outline: as §3

blackgrass = experiment: Test B postemergence herbicide test; format: in vivo, Alopecurus myosuroides; conditions: postemergence, visual rating, scale 0 (no effect) to 100 (complete control)
Outline: (§4)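 Paddy species grown to the 2-leaf stage under flooding; blackgrass sprayed postemergence at 2–18 cm (1- to 4-leaf stage). Plants kept in a greenhouse for 13 to 15 days, then visually rated against controls on 0 (no effect) to 100 (complete control).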

barnyardgrass [4] = experiment: Test B flooded paddy test; format: in vivo, Echinochloa crus-galli; conditions: 1000 g ai/ha, scale 0 to 100 (0 no effect, 100 complete control)
Outline: as §4

lambsquarters = experiment: Test B pre-/postemergence herbicide test; format: in vivo, Chenopodium album; conditions: for Lambsquarters plant response rating: postemergence, scale 0 (no effect) to 100 (complete control)
Outline: as §2

velvetleaf = experiment: Test B pre-/postemergence herbicide test; format: in vivo, Abutilon theophrasti; conditions: for Velvetleaf plant response rating: postemergence, scale 0 (no effect) to 100 (complete control)
Outline: as §2

[5] = tested on: small flower umbrella sedge; experiment: Test B flooded paddy test; format: in vivo, Cyperus difformis; conditions: 1000 g ai/ha, scale 0 to 100 (0 no effect, 100 complete control)
Outline: as §4

corn = experiment: Test B pre-/postemergence herbicide test; format: in vivo, Zea mays; conditions: for Corn plant response rating: postemergence, scale 0 (no effect) to 100 (complete control)
Outline: as §2

ducksalad = experiment: Test B flooded paddy test; format: in vivo, Heteranthera limosa; conditions: 1000 g ai/ha, scale 0 to 100 (0 no effect, 100 complete control)
Outline: as §4

[6] = 125 g ai/ha, 0 = no effect, 100 = complete control, preemergence
[7] = 500 g ai/ha, visual rating, 0 = no effect, 100 = complete control, preemergence

CCOC(=O)c1ccnc(NC(=O)c2cn(C(C)(C)C)nc2CC)c1 [Compound 238]
10: Oat, Wild plant response rating (wild oat; 500 g ai/ha) | Blackgrass plant response rating (blackgrass; 500 g ai/ha) | Barnyardgrass plant response rating (barnyardgrass [4]) | Velvetleaf plant response rating (velvetleaf; 500 g ai/ha, visual rating)
0: Wheat plant response rating (wheat; 125 g ai/ha) | Rice plant response rating (0 to 100 scale) (rice [1]; 125 g ai/ha) | Plant response rating, Rice (rice [1]; 500 g ai/ha, visual rating) | Cocklebur plant response rating (0 to 100 scale) (cocklebur; [6]) | Plant response rating, Cocklebur (cocklebur; [7]) | Cocklebur plant response rating (cocklebur; 125 g ai/ha, visual rating) | Crabgrass, Large plant response rating (0 to 100 scale) (large crabgrass; [6]) | Plant response rating, Crabgrass, Large (large crabgrass; [7]) | Crabgrass, Large plant response rating (large crabgrass; 125 g ai/ha, visual rating) | Crabgrass, Large plant response rating (large crabgrass; 500 g ai/ha, visual rating) | Pigweed plant response rating (0 to 100 scale) (pigweed; [6]) | Plant response rating, Pigweed (pigweed; [7]) | Pigweed plant response rating (pigweed; 125 g ai/ha, visual rating) | Pigweed plant response rating (pigweed; 500 g ai/ha, visual rating) | Surinam Grass plant response rating (0 to 100 scale) (Surinam grass; [6]) | Plant response rating, Surinam Grass (Surinam grass; [7]) | Surinam Grass plant response rating (Surinam grass; 125 g ai/ha, visual rating) | Surinam Grass plant response rating (Surinam grass; 500 g ai/ha, visual rating) | Barnyardgrass plant response rating (0 to 100 scale) (barnyardgrass [2]; [6]) | Plant response rating, Barnyardgrass (barnyardgrass [2]; [7]) | Barnyardgrass plant response rating (barnyardgrass [2]; 125 g ai/ha, visual rating) | Barnyardgrass plant response rating (barnyardgrass [2]; 500 g ai/ha, visual rating) | Foxtail, Giant plant response rating (0 to 100 scale) (giant foxtail; [6]) | Plant response rating, Foxtail, Giant (giant foxtail; [7]) | Foxtail, Giant plant response rating (giant foxtail; 125 g ai/ha, visual rating) | Foxtail, Giant plant response rating (giant foxtail; 500 g ai/ha, visual rating) | Oat, Wild plant response rating (wild oat; 125 g ai/ha) | Morningglory plant response rating (0 to 100 scale) (morningglory; [6]) | Plant response rating, Morningglory (morningglory; [7]) | Morningglory plant response rating (morningglory; 125 g ai/ha, visual rating) | Morningglory plant response rating (morningglory; 500 g ai/ha, visual rating) | Blackgrass plant response rating (blackgrass; 125 g ai/ha) | Lambsquarters plant response rating (0 to 100 scale) (lambsquarters; [6]) | Plant response rating, Lambsquarters (lambsquarters; [7]) | Lambsquarters plant response rating (lambsquarters; 125 g ai/ha, visual rating) | Lambsquarters plant response rating (lambsquarters; 500 g ai/ha, visual rating) | Velvetleaf plant response rating (0 to 100 scale) (velvetleaf; [6]) | Plant response rating, Velvetleaf (velvetleaf; [7]) | Velvetleaf plant response rating (velvetleaf; 125 g ai/ha, visual rating) | Corn plant response rating (0 to 100 scale) (corn; [6]) | Plant response rating, Corn (corn; [7]) | Corn plant response rating (corn; 125 g ai/ha, visual rating) | Corn plant response rating (corn; 500 g ai/ha, visual rating) | Ducksalad plant response rating (ducksalad)
20: Wheat plant response rating (wheat; 500 g ai/ha) | Cocklebur plant response rating (cocklebur; 500 g ai/ha, visual rating)
30: Rice plant response rating (rice [3])
80: Sedge, Umbrella plant response rating [5]

Source: US20060069132A1, “Azolecarboxamide herbicides” (priority 2004, published 2006)
